The source of these data is patent US5756538A, “Flavonoid and biflavonoid derivatives, their pharmaceutical compositions, their anxiolytic activity” (University of Strathclyde, priority 1993, dated 1998).

In general, Ki refers to the dissociation constant of the complex between target and ligand, obtained from inhibition or displacement. Low values mean a stronger hold on the target, high ones a looser hold on the target. A word on the IC50: it is the point on the concentration scale where inhibition reaches its midpoint.

Data set [1] deals with benzodiazepine receptor. Kind of data set: Competitive inhibition of 3H-flunitrazepam binding to benzodiazepine receptor (cerebral cortical membranes). The arrangement: species or system bovine. As for the experimental part: (Competitive inhibition of H^3 -flunitrazepam to benzodiazepine receptor)
Binding of 3H-flunitrazepam (0.7 nM) to the benzodiazepine receptor was carried out in extensively washed cerebral cortical membranes.
H^3 -flunitrazepam has a Ki of […] to the benzodiazepine receptor.
IC50 values were obtained using flavonoids at different concentrations (10^-10 to 10^-3 M).
Structure - activity relationships of several flavonoids on
the ^3 H Flunitrazepam binding to bovine brain membranes.

Data set [2] concerns mice. Kind of data set: Locomotor activity test (OPTO-VARIMEX). As for the experimental part: Male CF1 mice from our breeding stock weighing 28-35 g were used. The animals were placed in groups of 10-12 with free access to water and food, and maintained on a 12 h/12 h day-night cycle.
Diazepam (DZ; Hoffman-La Roche) and the flavonoids were dissolved in DMSO 40%, NaOH 0.1N (7:3: v/v) at pH 8.2 Control animals were injected with the same vehicle (VEH). RO 15-1788 (Hoffmann-La Roche) was suspended in DMSO 10%, propyleneglycol 10% in distilled water.
(c) Locomotor Activity Test: we used an OPTO-VARIMEX apparatus consisting of a glass box (36×15×20 cm) and two lateral bars with 15 light beams (0.32 cm diameter, beam spacing 2.65 cm). The apparatus detects automatically all the mouse movements, and discriminates between total and ambulatory activity. The locomotor activity (number of movements across the beams) was counted during 5 min. An increase in the number of transitions through the beams reflects an augmented locomotor activity.
The general procedure for all the tests is as follows: mice were injected with vehicle or the drug solution 20 min before the beginning of the test and put into another home cage. Ro 15-1788, a specific BZD receptor antagonist was injected 10 min before the tested drug. All the injections were given intraperitoneally (i.p.). Control mice were tested in each session, in parallel with those animals receiving the test drug or diazepam. Testing was carried out `blind`. All data were submitted to analysis of variance (ANOVA). Post-hoc comparisons between individual treatments and controls were made using Dunnett's t-test.
FIGS. 15, 16, 17 and 18 show ambulatory locomoter activity counts during a 5 min. test session in an OPTO-Varimex apparatus, 20 min. after i.p. injection with a mixture of brominated flavones (0.6,1,3 mg/kg), FIG. 15; 2' chlorinated chrysin (1,3 mg/kg); FIG. 16; 2' fluorinated chrysin (3 mg/kg), FIG. 17; 6,8 dibromoflavone, FIG. 18. Data are expressed as medians (interquartile range) of (n) number of animals.

Data set [3] relates to mice. In words: Horizontal wire test (muscle relaxation). It is filed as in vivo, mice (male CF1). As for the experimental part:
(d) Horizontal Wire Test: It consisted of an horizontally strung wire (1 mm diameter, 15 cm long), placed at 20 cm from the table. Mice were lifted by the tail, allowed to grasp the wire with their forepaws and released. […] After two trials, performed at 5 min. intervals, the test took place. A myorelaxant drug, like diazepam at high doses, will impair the ability of mice to grasp the wire. Generally, this state of muscle relaxation is commonly associated with sedation.
(§1) All the injections were given intraperitoneally (i.p.). […] Testing was carried out `blind`. All data were submitted to analysis of variance (ANOVA).
The test took place after two trials, executed after a 5 min interval.

Data set [4] has as its system mice. Kind of data set: PTZ induced seizures in mice (anticonvulsant activity). It is filed as in vivo. As for the experimental part: (Induced seizures in mice)
Benzodiazepines in general show an anxiolytic effect, a sedative effect and an anticonvulsant effect. In order to assess the present compounds for anticonvulsant activity the following experiment was carried out.
The method of Medina et al Biochem.Pharm. 40 p2227-2231, (1990) was followed (with the exception that injections were carried out intraperitoneally) and the mice observed for seizures.
EFFECTS OF IP ADMINISTRATION OF APIGENIN ON PTZ
INDUCED SEIZURES IN MICE.
The convulsant doses of pentylenetetrazole are between 50-80 mg/kg in different experiments carried out in 6 independent days.

For data set [5], the system named is mice. Kind of data set: Elevated plus maze (anxiety). The note with it: for Total arm entries / Percentage of entries in the open arms / Percentage of the time spent on the open arms: 20 min after injection; for Total arm entries: 5 min test, mean ± S.E.M. It is filed as in vivo, mice (male CF1). As for the experimental part:
(a) Elevated Plus Maze: consisted of 4 perpendicularly disposed wood arms (20×5 cm; two had 35 cm high wood walls, and two were open) linked by a central 10×10 cm square. The maze was suspended 50 cm from the room floor. Animals were placed on the central part of the maze facing a closed arm. This test has been widely validated to measure anxiety in rodents. The number of entries into and the time spent in the open and closed arms were counted during 5 min. […] Total exploratory activity (number of entries in both arms) was also determined.
as §1

For data set [6], the system named is mice. In words: Holeboard test (exploratory activity, sedation). It is filed as in vivo, mice (male CF1). As for the experimental part: (b) Holeboard Test: consisted of a wood box (60×60×30 cm) with four 2 cm diameter holes equidistant in the floor. The number of head-dips and the time spent head-dipping were counted during 5 min. An increase in the number and the time spent head-dipping implies a greater exploratory activity.
as §1

Data set [7] relates to locus coeruleus noradrenaline. Kind of data set: Noradrenaline levels in locus coeruleus after immobilization stress. The format is in vivo, rats. The note with it: 1 mg/kg i.p., 30 min before 90-min stress session. As for the experimental part: Rats were submitted to a 90-minute immobilization stress session in a plastic cylinder. The locus coeruleus was dissected out after killing by decapitation and noradrenaline assessed by HPLC with electrochemical detection. Doses were 1 mg/kg for each substance, injected i.p., 30 minutes before the stress session.

Where [8] appears, read: 3H-flunitrazepam 0.7 nM, read-out: IC50 at the benzodiazepine receptor.
[9] abbreviates: bovine brain membranes, 0.7 nM 3H-flunitrazepam, read-out: 3H Flunitrazepam binding IC50.

Like-named read-outs stand apart in the source and are kept apart here.

For the compound `CN1C(=O)CN=C(c2ccccc2F)c2cc([N+](=O)[O-])ccc21` [H^3 -flunitrazepam, reference compound], affinity in data set [1] was put at a Ki of 3 nM.
Turning to `O=c1cc(-c2ccccc2)oc2cc(Br)ccc12` [7-bromoflavone], the “Ambulatory locomotor activity counts vs controls” value in data set [2] (i.p., dose not stated) is “No significant change”. In data set [1], the “Benzodiazepine ligand behaviour / affinity relative to 3H-flunitrazepam” value was “far higher affinity for the benzodiazepine receptor”. The IC50 in data set [1] (setting [8]) and in data set [1] (setting [9]) was 50 nM throughout.
With `COc1cc(O)c2c(=O)cc(-c3ccc(OC)c(-c4c(O)cc(O)c5c(=O)cc(-c6ccc(O)cc6)oc45)c3)oc2c1` [Ginkgetin], the IC50 in data set [1] (setting [9]) worked out at 5000 nM.
With `CN1C(=O)CN=C(c2ccccc2)c2cc(Cl)ccc21` [Diazepam, reference compound], the “Percentage of animals grasping the horizontal wire” value in data set [3] (6 mg/kg i.p.) is recorded as “significantly decreased”. Also, the “Number of animals with clonic convulsions” value in data set [4] (3 mg/kg i.p. + PTZ) was 0/6. In data set [2] (0.3-3 mg/kg i.p., 20 min after injection), the Locomotor activity result is “increasing locomotor activity”. Further, the Total arm entries in data set [5] (0.3 mg/kg i.p.) is listed as 10.5 ± 0.8. Besides, the Total arm entries in data set [5] (0.6 mg/kg i.p.) is on record as 12.4 ± 1.9. For the same compound, in data set [5] (0.3 and 0.6 mg/kg i.p.), the “Percentage of entries in the open arms” value is “increased the percentage of entries in the open arms (p<0.01)” and the “Percentage of the time spent on the open arms” value was “the percentage of the time spent on the open arms (p<0.01)”. In addition, in data set [5] (i.p.), the “Anxiolytic effect in the elevated plus maze” value is given as “displayed an anxiolytic effect”. Also, the “Total arm entries, difference from controls” value in data set [5] (i.p., doses of Table I) was “No differences were observed”. Besides, the Number of head-dips result in data set [6] (0.3 mg/kg i.p.) is given as “increased the number of head-dips (p<0.05)”. Also, the Time spent head-dipping result in data set [6] (1 mg/kg i.p.) is on record as “increased the time spent head-dipping(p<0.01)”. In addition, in data set [6] (6 mg/kg i.p.), the Number of head-dips entry was “decrease in both the number of head-dips and in the time spent head-dipping (p<0.01)”; the Sedation result is on record as “indicates sedation”; the Time spent head-dipping entry is “decrease in both the number of head-dips and in the time spent head-dipping (p<0.01)”.
Take `O=C1CC(c2ccccc2)Oc2ccccc21` (centres unmarked) [flavanone, reference compound]: in data set [1] (setting [9]), the IC50 is 40000 nM.
As for `O=c1cc(-c2ccccc2Cl)oc2cc(O)cc(O)c12` [2' chlorochrysin, 5,7-Dihydroxy-2'-chloroflavone], in data set [2] (1, 3 mg/kg i.p., 20 min after injection, 5 min session), the “Ambulatory locomotor activity counts vs controls” value is reported as “No significant difference”. Further, the IC50 in data set [1] (setting [9]) worked out at 9000 nM.
Regarding `O=c1c(O[C@@H]2O[C@H](CO)[C@@H](O)[C@H](O)[C@H]2O)c(-c2ccc(O)c(O)c2)oc2cc(O)cc(O)c12` [Isoquercetin, reference compound], the concentration for half-maximal inhibition (IC50) in data set [1] (setting [9]) is 10000 nM.
Regarding `O=c1cc(-c2ccccc2F)oc2cc(O)cc(O)c12` [2' fluorochrysin, 5,7-Dihydroxy-2'-fluoroflavone], the “Ambulatory locomotor activity counts vs controls” value in data set [2] (3 mg/kg i.p., 20 min after injection, 5 min session) is reported as “No significant difference”. In addition, in data set [1] (setting [9]), the IC50 stood at 8000 nM.
Take `O=c1cc(-c2ccccc2)oc2c(Br)c(O)c(Br)c(O)c12` [6,8 dibromochrysin, 6,8-Dibromo-5,7-dihydroxyflavone]: in data set [1], the “Benzodiazepine ligand behaviour / affinity relative to 3H-flunitrazepam” value was “benzodiazepine ligand behaviour similar to that of ^3 H-flunitrazepam”. Moreover, the IC50 in data set [1] (setting [8]) was 700 to 3000 nM; in data set [1] (setting [9]) it was 700 nM.
Regarding 6,8 dibromoflavone, in data set [2] (i.p., dose not stated), the “Ambulatory locomotor activity counts vs controls” value is “No significant difference”.
Consider `O=c1cc(-c2ccc(O)c(-c3c(O)cc(O)c4c(=O)cc(-c5ccc(O)cc5)oc34)c2)oc2cc(O)cc(O)c12` [Amentoflavone], for which the “Benzodiazepine ligand behaviour / affinity relative to 3H-flunitrazepam” value in data set [1] was “far higher affinity for the benzodiazepine receptor”. Further, the IC50 in data set [1] (setting [8]) and in data set [1] (setting [9]) was 10 nM throughout.
Consider `O=c1cc(-c2ccccc2)oc2ccccc12` [Flavone, 2-phenyl-4H-1-benzopyran-4-one], for which the “Percentage of entries in the open arms” value in data set [5] (1 mg/kg i.p.) was “increased the percentage of entries and time spent in the open arms (p<0.002)”. For the same compound, the “Percentage of the time spent on the open arms” value in data set [5] (1 mg/kg i.p.) is “increased the percentage of entries and time spent in the open arms (p<0.002)”. For the same compound, the “Benzodiazepine ligand behaviour / affinity relative to 3H-flunitrazepam” value in data set [1] was “benzodiazepine ligand behaviour similar to that of ^3 H-flunitrazepam”. In addition, the concentration for half-maximal inhibition (IC50) in data set [1] (setting [8]) is 700 to 3000 nM; in data set [1] (setting [9]), 1000 nM.
For the compound `O=c1c(O[C@@H]2O[C@H](CO)[C@@H](O)[C@H](O)[C@H]2O)c(-c2ccc(O)c(O)c2)oc2cc(O)cc(O)c12` [Isoquercitrin, reference compound], the IC50 in data set [1] (setting [9]) stood at 80000 nM.
Turning to `O=c1cc(-c2ccc(O)cc2)oc2cc(O)cc(O)c12` [Apigenin, 4', 5,7-trihydroxyflavone], the “Effect in the horizontal wire test” value in data set [3] (3 and 10 mg/kg i.p.) was “did not induce any effect”. For the same compound, the “Number of animals with clonic convulsions” value in data set [4] (3 mg/kg i.p. + PTZ) is recorded as 8/8; in data set [4] (20 mg/kg i.p. + PTZ), 3/3; in data set [4] (40 mg/kg i.p. + PTZ) it was 12/14; in data set [4] (80 mg/kg i.p. + PTZ), 11/11. Moreover, the Anticonvulsant activity result in data set [4] (i.p., PTZ induced seizures) is listed as “no anticonvulsant activity”. In addition, the “Noradrenaline decrease in locus coeruleus provoked by immobilization stress” value is “blocked almost completely the noradrenaline decrease” in data set [7] and “dampened the noradrenaline decrease” in data set [7] (listed as apigenin). The “Potency vs diazepam on stress-provoked noradrenaline decrease” value in data set [7] is reported as “most potent effect”. Moreover, the “Anxiolytic effect in the elevated plus maze” value in data set [5] (i.p.) was “shows anxiolytic effects”. In data set [6] (3 and 10 mg/kg i.p.), the “Effect in the holeboard test” value was “did not induce any effect”. Also, in data set [1], the “Benzodiazepine ligand behaviour / affinity relative to 3H-flunitrazepam” value is on record as “benzodiazepine ligand behaviour similar to that of ^3 H-flunitrazepam”. For the same compound, the 50% inhibitory concentration (IC50) in data set [1] (setting [8]) is 700 to 3000 nM; in data set [1] (setting [9]), 3000 nM.
With `COc1ccc(-c2cc(=O)c3c(O)cc(O)c(-c4cc(-c5cc(=O)c6c(O)cc(O)cc6o5)ccc4OC)c3o2)cc1` [Isoginkgetin], the IC50 in data set [1] (setting [9]) is 4000 to 5000 nM.
In the case of `COc1cc(O)c2c(=O)cc(-c3ccccc3)oc2c1` [5 hydroxy 7 methoxyflavone, 5-hydroxy-7-methoxyflavone], in data set [1] (setting [9]), the IC50 came out at 46000 nM.
Still for that read-out and setting: under `C[C@@H]1O[C@@H](OC[C@H]2O[C@@H](Oc3c(-c4ccc(O)c(O)c4)oc4cc(O)cc(O)c4c3=O)[C@H](O)[C@@H](O)[C@@H]2O)[C@H](O)[C@H](O)[C@H]1O` [Rutin, reference compound] stands 60000 nM.
